According to patent US11052092B2, “N-{[2-(piperidin-1-yl)phenyl](phenyl)methyl}-2-(3-oxo-3,4-dihydro-2H-1,4-benzoxazin-7-yl)acetamide derivatives and related compounds as ROR-gamma modulators for treating autoimmune diseases” (Genfit, priority 2017, dated 2021):

Experiments:
[1] = system: Murine EL-4 lymphoma cell line overexpressing human RORγt; assay: IL-17 secretion from EL4 murine lymphoma; assay type: cell-based; conditions: Mus musculus; human RORγt-transfected EL4 cells, PMA (10 ng/mL) and ionomycin (1 μM), 24 h; read-out: IC50, IL-17 secretion inhibition
Procedure: Murine EL-4 lymphoma cell line overexpressing human RORγt was used in this functional assay to assess compound ability to inhibit IL-17 cytokine secretion.
EL-4 cells are maintained in a standard culture medium RPMI supplemented with 10% fetal calf serum, 1% sodium pyruvate, 1% essential amino acids and 1% antibiotics at 37° C. in a humidified atmosphere of 5% CO02 and 95% air. Culture medium was changed every 2 days. EL4 cells were transfected with a plasmid encoding hRORγt (sequence identical to published sequence NM 001001523). […] Briefly, 1 μg of DNA/1 million cells was served to transfect EL-4 cells. Cell/DNA suspension was transferred into certified cuvette and the electroporation of RORγt plasmid was carried out using appropriate Nucleofector® program.
Cells were seeded in 96 well plates at a density of 150000 cells/I well then treated with compounds of this invention at indicated concentrations and incubated for 24 hours at 37° C. in a humidified atmosphere of 5% C02 and 95% air. EL-4 cells were pretreated with test compounds (RORγ modulators) and stimulated with PMA (10 ng/mL) and ionomycin (1 μM final concentration) in the presence of test compound concentrations for additional 24 h at 37° C. in a humidified atmosphere of 5% C02 and 95% air. Subsequently, supernatants were collected (after centrifugation at 300 g for 10 minutes) to determine the concentrations of IL-17 by HTRF (CisBio, France) or ELISA (R&D Systems Europe) according to the manufacturer's protocols.

human RORγt = biological target: T1, human RORγt (Homo sapiens, UniProt P51449); assay: RORE Luciferase/RORγt transactivation assay; assay type: cell-based; conditions: COS-7 cells transfected with human IL-17 promoter luciferase reporter and RORγt plasmid; 20 h with compound; read-out: IC50, RORγt activity inhibition
T1 construct: the full-length cDNA of human RORγt; expressed in transfected cells; host or cells: COS-7 (monkey kidney)
T1 sequence (P51449 1-497 isoform P51449-2): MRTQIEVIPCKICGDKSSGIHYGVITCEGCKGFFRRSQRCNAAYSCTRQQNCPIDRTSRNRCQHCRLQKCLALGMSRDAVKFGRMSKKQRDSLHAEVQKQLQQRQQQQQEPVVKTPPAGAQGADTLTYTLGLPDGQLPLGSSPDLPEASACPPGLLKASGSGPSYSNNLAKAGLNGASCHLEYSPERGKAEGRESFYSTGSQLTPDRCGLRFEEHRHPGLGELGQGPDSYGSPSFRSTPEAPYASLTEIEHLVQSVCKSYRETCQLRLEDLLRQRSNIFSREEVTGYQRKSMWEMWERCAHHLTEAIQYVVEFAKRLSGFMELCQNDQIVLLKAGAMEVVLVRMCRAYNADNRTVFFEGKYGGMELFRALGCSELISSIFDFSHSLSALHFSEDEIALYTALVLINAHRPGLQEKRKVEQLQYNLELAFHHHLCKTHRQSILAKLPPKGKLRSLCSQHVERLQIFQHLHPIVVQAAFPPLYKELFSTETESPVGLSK
In short: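 Transactivation read-out: luminescence (Steady-Glo, 30 min at room temperature) from COS-7 cells carrying a RORγt expression plasmid plus a 4.3 kb IL-17 promoter luciferase reporter. Compound exposure was in serum-free DMEM with 0.3% DMSO final. Reported values are IC50 (μM) and Emax (%).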

Row | SMILES | melting point [°C] | IC50 [1] [µM] | IC50 (human RORγt) [µM]
1 | Cc1ccc(C(NC(=O)Cc2ccc3[nH]c(C)nc3c2)c2ccccc2)c(N2CCCCC2)c1 (stereo not drawn) [Cpd. 75, 2-(2-methyl-1H-1,3-benzodiazol-5-yl)-N-{[4-methyl-2-(piperidin-1-yl)phenyl](phenyl)methyl}acetamide] | 137 | 0.1 to 1 | 0.01 to 0.1
2 | Cc1ccc(C(NC(=O)C2(c3ccc4[nH]cc(CNS(C)(=O)=O)c4c3)CC2)c2ccc(C)o2)c(N2CCCCC2)c1 (stereo not drawn) [Cpd. 119, 1-[3-(methanesulfonamidomethyl)-1H-indol-5-yl]-N-{[4-methyl-2-(piperidin-1-yl)phenyl](5-methylfuran-2-yl)methyl}cyclopropane-1-carboxamide] | 109 | < 0.1 | 0.01 to 0.1
3 | Cc1ccc(C(NC(=O)Cc2ccc3c(C(=O)CS(C)(=O)=O)c[nH]c3c2)c2ccc(C)o2)c(N2CCCCC2)c1 (stereo not drawn) [Cpd. 117, 2-[3-(2-methanesulfonylacetyl)-1H-indol-6-yl]-N-{[4-methyl-2-(piperidin-1-yl)phenyl](5-methylfuran-2-yl)methyl}acetamide] | 85 | 0.1 to 1 | 0.01 to 0.1
4 | Cc1ccc(C(NC(=O)Cc2ccc3c(c2)C(C)(O)C(=O)N3)c2ccc(C)o2)c(N2CCCCC2)c1 (stereo not drawn) [Cpd. 47, 2-(3-hydroxy-3-methyl-2-oxo-2,3-dihydro-1H-indol-5-yl)-N-{[4-methyl-2-(piperidin-1-yl)phenyl](5-methylfuran-2-yl)methyl}acetamide] | 112 | 0.1 to 1 | 0.01 to 0.1
5 | Cc1ccc(C(NC(=O)Cc2ccc3c(ccn3CCC(=O)O)c2)c2ccc(C)o2)c(N2CCCCC2)c1 (stereo not drawn) [Cpd. 97, 3-{5-[({[4-methyl-2-(piperidin-1-yl)phenyl](5-methylfuran-2-yl)methyl}carbamoyl)methyl]-1H-indol-1-yl}propanoic acid] | 95 | 0.1 to 1 | 0.01 to 0.1
6 | COc1ccc(C(NC(=O)Cc2ccc3c(ccn3CCC(=O)O)c2)c2ccc(C)o2)c(N2CCCCCC2)c1 (stereo not drawn) [Cpd. 111, 3-{5-[({[2-(azepan-1-yl)-4-methoxyphenyl](5-methylfuran-2-yl)methyl}carbamoyl)methyl]-1H-indol-1-yl}propanoic acid] | 80 | 0.1 to 1 | 0.01 to 0.1
7 | Cc1ccc(C(NC(=O)Cc2ccc3[nH]cc(CN4CCOCC4)c3c2)c2ccc(C)o2)c(N2CCCCC2)c1 (stereo not drawn) [Cpd. 94, N-{[4-methyl-2-(piperidin-1-yl)phenyl](5-methylfuran-2-yl)methyl}-2-[3-(morpholin-4-ylmethyl)-1H-indol-5-yl]acetamide] | 100 | < 0.1 | 0.01 to 0.1
8 | CC(=O)N1CCc2cc(C3(C(=O)NC(c4ccc(C)o4)c4ccc(C)cc4C)CC3)ccc21 (stereo not drawn) [Cpd. 126, 1-(1-acetyl-2,3-dihydro-1H-indol-5-yl)-N-[(2,4-dimethylphenyl)(5-methylfuran-2-yl)methyl]cyclopropane-1-carboxamide] |  | 0.1 to 1 | 0.01 to 0.1
9 | Cc1ccc(C(NC(=O)Cc2ccc3c(c2)CC(=O)N3C)c2ccc(C)o2)c(N2CCCCC2)c1 (stereo not drawn) [Cpd. 38, N-{[4-methyl-2-(piperidin-1-yl)phenyl](5-methylfuran-2-yl)methyl}-2-(1-methyl-2-oxo-2,3-dihydro-1H-indol-5-yl)acetamide] |  | 0.1 to 1 | 0.01 to 0.1
10 | Cc1ccc(C(NC(=O)Cc2ccc3[nH]cc(CCO)c3c2)c2ccc(C)o2)c(N2CCCCC2)c1 (stereo not drawn) [Cpd. 57, 2-[3-(2-hydroxyethyl)-1H-indol-5-yl]-N-{[4-methyl-2-(piperidin-1-yl)phenyl](5-methylfuran-2-yl)methyl}acetamide] |  | < 0.1 | 0.01 to 0.1
11 | Cc1ccc(C(NC(=O)Cc2ccc3c(c2)CN(S(C)(=O)=O)C3)c2ccc(Cl)o2)c(N2CCCCC2)c1 (stereo not drawn) [Cpd. 79, N-[(5-chlorofuran-2-yl)[4-methyl-2-(piperidin-1-yl)phenyl]methyl]-2-(2-methanesulfonyl-2,3-dihydro-1H-isoindol-5-yl)acetamide] |  | 0.1 to 1 | 0.01 to 0.1
12 | Cc1ccc(C(NC(=O)Cc2ccc3[nH]cc(C(=O)CS(C)(=O)=O)c3c2)c2ccc(C)o2)c(N2CCCCC2)c1 (stereo not drawn) [Cpd. 103, 2-[3-(2-methanesulfonylacetyl)-1H-indol-5-yl]-N-{[4-methyl-2-(piperidin-1-yl)phenyl](5-methylfuran-2-yl)methyl}acetamide] |  | < 0.1 | 0.01 to 0.1
13 | Cc1ccc(C(NC(=O)C2(c3ccc4[nH]cc(CO)c4c3)CC2)c2ccc(C)o2)c(N2CCCCC2)c1 (stereo not drawn) [Cpd. 89, 1-[3-(hydroxymethyl)-1H-indol-5-yl]-N-{[4-methyl-2-(piperidin-1-yl)phenyl](5-methylfuran-2-yl)methyl}cyclopropane-1-carboxamide] | 112 | < 0.1 | < 0.01
14 | Cc1ccc(C(NC(=O)Cc2ccc3c(c2)CN(S(C)(=O)=O)C3)c2ccc(C)o2)c(N2CCCCC2)c1 (stereo not drawn) [Cpd. 41, 2-(2-methanesulfonyl-2,3-dihydro-1H-isoindol-5-yl)-N-{[4-methyl-2-(piperidin-1-yl)phenyl](5-methylfuran-2-yl)methyl}acetamide] |  | < 0.1 | 0.01 to 0.1
15 | COc1ccc(C(NC(=O)Cc2ccc3[nH]c(=O)cc(C)c3c2)c2ccccc2)c(N2CCCCC2)c1 (stereo not drawn) [Cpd. 10, N-{[4-methoxy-2-(piperidin-1-yl)phenyl](phenyl)methyl}-2-(4-methyl-2-oxo-1,2-dihydroquinolin-6-yl)acetamide] |  | 1 to 10 | 1 to 10
16 | Cc1ccc(C(NC(=O)Cc2ccc3ccn(C(=O)N4CCOCC4)c3c2)c2ccc(C)o2)c(N2CCCCC2)c1 (stereo not drawn) [Cpd. 114, N-{[4-methyl-2-(piperidin-1-yl)phenyl](5-methylfuran-2-yl)methyl}-2-[1-(morpholine-4-carbonyl)-1H-indol-6-yl]acetamide] |  | 0.1 to 1 | 0.01 to 0.1
17 | Cc1ccc(C(NC(=O)Cc2ccc3[nH]cc(C(=O)CS(C)(=O)=O)c3c2)c2ccc(C)o2)c(C)c1 (stereo not drawn) [Cpd. 107, N-[(2,4-dimethylphenyl)(5-methylfuran-2-yl)methyl]-2-[3-(2-methanesulfonylacetyl)-1H-indol-5-yl]acetamide] |  | 1 to 10 | 0.1 to 1
18 | Cc1ccc(C(NC(=O)Cc2ccc3c(c2)C(=NO)C(=O)N3)c2ccc(C)o2)c(N2CCCCC2)c1 (stereo not drawn) [Cpd. 42, 2-[3-(hydroxyimino)-2-oxo-2,3-dihydro-1H-indol-5-yl]-N-{[4-methyl-2-(piperidin-1-yl)phenyl](5-methylfuran-2-yl)methyl}acetamide] |  | 0.1 to 1 | 0.1 to 1
19 | Cc1ccc(C(NC(=O)Cc2ccc3[nH]cc(CCS(C)(=O)=O)c3c2)c2ccc(Cl)o2)c(N2CCCC2)c1 (stereo not drawn) [Cpd. 112, N-[(5-chlorofuran-2-yl)[4-methyl-2-(pyrrolidin-1-yl)phenyl]methyl]-2-[3-(2-methanesulfonylethyl)-1H-indol-5-yl]acetamide] |  | 0.1 to 1 | 0.01 to 0.1
20 | Cc1ccc(C(NC(=O)Cc2ccc3c(c2)OCC(=O)N3)c2ccc(C)o2)c(N2CCCCC2)c1 (stereo not drawn) [Cpd. 35, N-{[4-methyl-2-(piperidin-1-yl)phenyl](5-methylfuran-2-yl)methyl}-2-(3-oxo-3,4-dihydro-2H-1,4-benzoxazin-7-yl)acetamide] |  | < 0.1 | 0.01 to 0.1
